According to patent US20100099725A1, “PEROXISOME PROLIFERATOR ACTIVATED RECEPTOR MODULATORS” (priority 2007, published 2010):

Tests used:
[1] = target: T1, PPARα receptor (Homo sapiens, UniProt Q07869); assay: Binding and cotransfection studies, PPARα ("binding assay")
T1 sequence (Q07869 174-468 limits assumed): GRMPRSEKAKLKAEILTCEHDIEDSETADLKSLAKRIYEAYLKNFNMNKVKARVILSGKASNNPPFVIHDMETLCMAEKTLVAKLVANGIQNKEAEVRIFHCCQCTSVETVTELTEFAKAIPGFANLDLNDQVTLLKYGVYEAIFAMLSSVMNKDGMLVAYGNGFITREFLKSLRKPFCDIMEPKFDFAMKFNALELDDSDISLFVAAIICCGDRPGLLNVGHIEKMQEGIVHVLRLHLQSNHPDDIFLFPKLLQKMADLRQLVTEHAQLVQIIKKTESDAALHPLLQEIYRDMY
Procedure: (§1) DNA-dependent binding (ABCD binding) is carried out using SPA technology with PPAR receptors. Tritium-labeled PPARCX agonists are used as radioligands for generating displacement curves and IC50 values with compounds of the invention. Cotransfection assays are carried out in CV-1 cells. The reporter plasmid contains an acylCoA oxidase (AOX) PPRE and TK promoter upstream of the luciferase reporter cDNA. Appropriate PPARs are constitutively expressed using plasmids containing the CMV promoter. For PPARα, interference by endogenous PPARγ in CV-1 cells is an issue. In order to eliminate such interference, a GAL4 chimeric system is used in which the DNA binding domain of the transfected PPAR is replaced by that of GAL4, and the GAL4 response element is utilized in place of the AOX PPRE. Cotransfection efficacy is determined relative to PPARα agonist reference molecules. Efficacies are determined by computer fit to a concentration-response curve, or in some cases at a single high concentration of agonist (10 μM).
(§2) These studies are carried out to evaluate the ability of compounds of the invention to bind to and/or activate various nuclear transcription factors, particularly huPPARα (“hu” indicates “human”). These studies provide in vitro data concerning efficacy and selectivity of compounds of the invention. Furthermore, binding and cotransfection data for compounds of the invention are compared with corresponding data for marketed compounds that act on huPPARα.

[2] = target: T2, PPARδ receptor (Homo sapiens, UniProt Q03181); assay: Binding and cotransfection studies, PPARδ ("binding assay")
T2 sequence (Q03181 1-441): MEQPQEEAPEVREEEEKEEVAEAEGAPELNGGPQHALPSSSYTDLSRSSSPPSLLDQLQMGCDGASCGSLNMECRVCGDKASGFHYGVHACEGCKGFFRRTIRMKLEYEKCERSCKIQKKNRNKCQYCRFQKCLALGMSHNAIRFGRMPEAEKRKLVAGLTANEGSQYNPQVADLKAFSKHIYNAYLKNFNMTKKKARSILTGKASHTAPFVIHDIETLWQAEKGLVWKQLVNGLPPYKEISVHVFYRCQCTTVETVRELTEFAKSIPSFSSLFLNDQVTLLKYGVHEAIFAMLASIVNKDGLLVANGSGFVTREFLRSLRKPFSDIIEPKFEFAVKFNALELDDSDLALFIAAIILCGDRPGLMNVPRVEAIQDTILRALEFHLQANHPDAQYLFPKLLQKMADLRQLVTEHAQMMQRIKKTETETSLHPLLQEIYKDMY
Procedure: as §1, §2

[3] = target: T3, PXR (human SXR ligand binding domain) (Homo sapiens, UniProt O75469); assay: PXR Assay: GAL4PXR/GAL4 response element reporter assay in HuH7 cells; assay type: cell-based; details: 24 h, versus maximum stimulation with rifampicin
T3 construct: expressed in transfected cells; host or cells: HuH7 (human liver) cells
T3 sequence (O75469 146-433 limits assumed): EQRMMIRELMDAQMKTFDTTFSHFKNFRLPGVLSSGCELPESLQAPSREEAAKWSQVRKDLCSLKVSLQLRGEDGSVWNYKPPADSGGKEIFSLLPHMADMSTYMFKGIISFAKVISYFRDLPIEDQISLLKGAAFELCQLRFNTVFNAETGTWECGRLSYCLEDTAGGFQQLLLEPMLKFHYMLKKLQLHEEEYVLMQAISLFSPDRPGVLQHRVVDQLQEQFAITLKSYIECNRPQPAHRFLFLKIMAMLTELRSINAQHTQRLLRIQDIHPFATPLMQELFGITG
Procedure: PXR Assay: GAL4PXR/GAL4 Response Element Reporter Assays in HuH7 Cells:
Human liver HuH7 cells are co-transfected using Fugene. The reporter plasmid, containing five Gal4 binding site and major late promoter of adenovirus upstream of the luciferase reporter cDNA, is transfected with a plasmid constitutively expressing a hybrid receptor consistent of GAL4 DNA binding domain and human SXR ligand binding domain using viral SV40 early promoter. Cells are transfected with 10 μg of total DNA/10^6 cells in T225 cm^2 flasks in DMEM:F12 (3:1) media with 10% charcoal-stripped Fetal Bovine Serum (FBS). After an overnight incubation, transfected cells are trypsinized, plated in 96 well dishes in DMEM:F12 (3:1) media with 10% charcoal-stripped FBS, incubated for 4 h and then exposed to 0.8 nM to 50 μM of test compounds in half log dilutions. After 24 h of incubations with compounds, cells are lysed and luciferase activity is determined Data is fit to a 4 parameter-fit logistics to determine EC50 values. The % efficacy is determined versus maximum stimulation obtained with rifampicin.

[4] = target: T4, Pregnane X Receptor (PXR) (Homo sapiens, UniProt O75469); details: reported in background section; cited from earlier work
T4 sequence (O75469 1-434): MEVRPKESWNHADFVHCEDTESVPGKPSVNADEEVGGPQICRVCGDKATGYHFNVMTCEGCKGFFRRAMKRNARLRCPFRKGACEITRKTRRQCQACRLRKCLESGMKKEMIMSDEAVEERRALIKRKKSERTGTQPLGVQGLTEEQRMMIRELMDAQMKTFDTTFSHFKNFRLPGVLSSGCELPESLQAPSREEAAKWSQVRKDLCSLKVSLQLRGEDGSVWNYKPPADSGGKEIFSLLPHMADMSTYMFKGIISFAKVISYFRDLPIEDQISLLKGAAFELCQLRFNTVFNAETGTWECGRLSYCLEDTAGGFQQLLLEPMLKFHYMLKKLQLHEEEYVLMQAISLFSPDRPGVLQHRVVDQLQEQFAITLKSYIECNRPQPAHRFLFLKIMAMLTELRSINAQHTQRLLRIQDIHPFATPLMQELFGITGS

SMILES | EC50 [1] | EC50 [2] | PXR (% efficacy versus max stimulation with Rifampicin) [3] | PXR activation [4]
CC(C)(Oc1ccc(OC(CCCC(F)(F)F)c2nn(-c3ccc(C(F)(F)F)cc3)c(=O)n2-c2c(F)cccc2F)cc1)C(=O)O (racemic) [Example 57, 2-(4-{1-[4-(2,6-Difluoro-phenyl)-5-oxo-1-(4-trifluoromethyl-phenyl)-4,5-dihydro-1H-[1,2,4]triazol-3-yl]-5,5,5-trifluoro-pentyloxy}-phenoxy)-2-methyl-propionic acid] | 872 nM | 46.4 nM | 13.5% | –
COCCn1c(COc2ccc(OC(C)(C)C(=O)O)c(C)c2)nn(-c2ccc(C(F)(F)F)cc2)c1=O [Example 2, 2-{4-[4-(2-Methoxy-ethyl)-5-oxo-1-(4-trifluoromethyl-phenyl)-4,5-dihydro-1H-[1,2,4]triazol-3-ylmethoxy]-2-methyl-phenoxy}-2-methyl-propionic acid] | 256 nM | 297 nM | 52.8% | –
Cc1c(C)c2c(c(C)c1O)CCC(C)(COc1ccc(CC3SC(=O)NC3=O)cc1)O2 (stereo not shown) [troglitazone] | – | – | – | activated the Pregnane X Receptor (PXR)
Cc1cc(OCc2nn(-c3ccc(C(F)(F)F)cc3)c(=O)n2-c2ccccc2F)ccc1OC(C)(C)C(=O)O [Example 13] | 19.5 nM | 14 nM | 57.8% | –
Cc1cc(OCc2nn(-c3ccc(C(F)(F)F)cc3)c(=O)n2C(C)C)ccc1OC(C)(C)C(=O)O [Example 1, 2-{4-[4-Isopropyl-5-oxo-1-(4-trifluoromethyl-phenyl)-4,5-dihydro-1H-[1,2,4]triazol-3-ylmethoxy]-2-methyl-phenoxy}-2-methyl-propionic acid] | 309 nM | 63.4 nM | 32.4% | –
